According to patent US12102709B2, “Anti-obesity agent, anti-dementia agent, deodorant, anti-aging agent, anti-glycation agent, anti-type I allergy agent, hypotensive agent, flavor improving agent, muscle enhancing agent, and bone metabolism improving agent” (Mitsui Sugar Co., Ltd., priority 2018, dated 2024):

System: C2C12 cells
Test: Myotube cell differentiation promotion test (Fusion index)
Type: cell-based, mouse
Conditions: 0.5 μM LDN-193189 with DMSO; 3 days; Comparative Example i2-2 55.1 ± 0.09
Experimental: (Cells) • Mouse Myoblasts C2C12 Cells (ATCC, CRL-1772) (Culture Mediums) • Growth culture medium composition: DMEM culture medium, 10% FBS, antibiotics added • Differentiation culture medium composition: DMEM culture medium, 0.5% FBS, antibiotics added C2C12 cells were cultivated using a growth culture medium in a T-75 flask (75 cm^2 U-shaped canted neck cell culture flask, commercially available from Corning Co., Ltd.). The T-75 flask was put into a CO2 incubator (5% CO2, 37° C., wet) and the C2C12 cells were cultured. The culture medium was replaced every other day, and when an 80% confluence was reached, the cells were collected and used for the test. Here, in the following test, regarding a well plate for culturing C2C12 cells, a plate coated with gelatin according to the following coating method was used. Pre-cultured cells were seeded in a 96-well plate for fluorescence observation at 4×10^4 cells/0.1 mL/well using a growth culture medium. The well plate was cultured in a CO2 incubator (5% CO2, 37° C.) for 2 days. […] After the culture medium was replaced, culturing was performed for 3 days, and after fixing, immunostaining with anti-myosin heavy chain (MHC) antibodies was performed. […] A total number of Hoechst positive nuclei and the number of MHC-positive nuclei were measured, and the Fusion index (% of MHC+nuclei) was calculated according to the following formula. […]

Compound: c1ccc2c(-c3cnn4cc(-c5ccc(N6CCNCC6)cc5)cnc34)ccnc2c1 [Positive Control i2, 4-(6-(4-(piperazine-1-yl)phenyl)pyrazolo[1,5-a]pyrimidin-3-yl)quinoline]
- Fusion index (% of MHC + nuclei): 63.7 ± 0.88 %
